Measurements: patent US20150315218A1, “SALTS OF PRODRUGS OF PIPERAZINE AND SUBSTITUTED PIPERIDINE ANTIVIRAL AGENTS” (Bristol-Myers Squibb Company, priority 2004, published 2015)

Legend:
[1] = Single dose study of Compound IVa in healthy human volunteers (capsule/solution, fasted/fed; first-in-human); format: in vivo; settings: for AUCtotal / Cmax: n = 6
Method: The parent compound IVa has been studied in human clinical trials. The compound was dosed in healthy human volunteers.
It is also readily apparent from the oral AUCs, that increases in drug exposure increased much more slowly and less than proportionally with dose. […] Between 200-800 mg dose range the increases in systemic exposure is dose-related although less than dose-proportional, while such exposure is dose independent above dose of 800 mg.
Dosing with a solution increased Compound IVa exposure.
The AUCs after a fed treatment were approximately 2.5 and 4.7 fold for 800 and 1800 mg doses, respectively, of those of the fasted treatment.
For the 800 mg capsule with food, the average plasma concentration is 1001 and 218 ng/mL at 8 and 12 hours post dose, respectively. The results supported a ql2 h or q8 h dosing regimen for a targeted Cmin value of at least 200 ng/mL after multiple doses. This value was selected based on preclinical data.

[2] = test system: HIV-1; experiment: Multiple dose study in HIV patients (antiviral activity of IVa); format: in vivo, human
Method: Based on the exposure data from the studies in normal volunteers, an efficacy study was carried out in HIV patients. […] “Antiviral Activity, Safety, and Tolerability of a Novel, Oral Small-Molecule HIV-1 Attachment Inhibitor, IVa, in HIV-1-Infected Subjects” G. Hanna, J. Lalezari, J. Hellinger, D. Wohl, T. Masterson, W. Fiske, J. Kadow, P-F. Lin, M. Giordano, R. Colonno, D. Grasela. Abstract J-32, Feb. 11, 2004, 11th Conference on Retroviruses and Opportunistic Infections (CROI), San Francisco, Calif. The study design included HIV+ adults who were either antiretroviral therapy naïve or off antiretroviral therapy for ≧16 weeks. Their CD4 counts were required to be ≧250 cells/mm3 and plasma HIV-1 RNA needed to be in the range 5,000-500,000 c/mL. There were 15 subjects in each dose arm and the ratio of patients receiving drug:placebo was 4:1.
The placebo-controlled, sequential study of IVa utilized an initial dose arm of 800 mg PO every 12 h followed by a second dosing arm of 1800 mg PO administered every 12 h. It is important to note that drug was administered in a capsule and in combination with a high fat meal to increase exposure and plasma levels. Study drug was administered for 7 days and the morning of Day 8. Subjects were followed for 14 days.

[3] = 1800 mg capsule, high fat meal vs fasted
[4] = fed (high fat meal), dose ratio 1:2.3 (800 mg vs. 1800 mg)
[5] = 800 mg PO every 12 h with high fat meal

COc1ncc(OC)c2c(C(=O)C(=O)N3CCN(C(=O)c4ccccc4)CC3)c[nH]c12 [IVa, N-(benzoyl)-N′-[(4,7-dimethoxy-6-azaindol-3-yl)-oxoacetyl]piperazine]
AUC of the solution relative to the capsule ([1]; 200 mg): ~3 fold | Cmax of the solution relative to the capsule ([1]; 200 mg): approximately 8 fold | relative bioavailability (fed vs. fasted) ([1]; 800 mg): 293% | AUCtotal ([1]; 800 mg, Fasting): 22 ± 12 µM·h | AUCtotal ([1]; 800 mg, Fed): 53 ± 10 µM·h | relative bioavailability (fed vs. fasted) ([1]; 1800 mg): 509% | AUC Fed/Fasting Ratio [1, 3]: 4.3 | Cmax Fed/Fasting Ratio [1, 3]: 4.5 | AUCtotal ([1]; 1800 mg, Fasting): 19 ± 5.8 µM·h | AUCtotal ([1]; 1800 mg, Fed): 82 ± 16 µM·h | ratio of AUC [1, 4]: 1.5 | ratio of Cmax [1, 4]: 1.6 | bioavailability ([1]; human, plasma, oral, 200 mg, read-out: relative bioavailability of the capsule to the solution formulation): 32% | Cmax ([1]; human, plasma, oral, 800 mg, Fasting): 3.7 ± 1.1 µM | Cmax ([1]; human, plasma, oral, 800 mg, Fed): 9.8 ± 1.3 µM | Cmax ([1]; human, plasma, oral, 1800 mg, Fasting): 3.3 ± 0.84 µM | Cmax ([1]; human, plasma, oral, 1800 mg, Fed): 15 ± 5 µM | concentration at 8 h ([1]; human, plasma, oral, 800 mg capsule with food, 8 hours post dose): 1000 ng/mL | concentration at 12 h ([1]; human, plasma, oral, 800 mg capsule with food, 12 hours post dose): 218 ng/mL | Tmax ([1]; human, plasma, oral, fed, read-out: median Tmax): 4 h | Day 8 Change in CD4, Mean (SD) [2, 5]: 106 (151) cells/mm3 | Day 8 Change in CD4, Range [2, 5]: −214 to +272 cells/mm3 | Maximal Change in HIV RNA Over 14 days >0.5 log10 c/mL, n (%) [2, 5]: 8 (67%) n (%) | Maximal Change in HIV RNA Over 14 days >1.0 log10 c/mL, n (%) [2, 5]: 7 (58%) n (%) | Maximal Change in HIV RNA Over 14 days >1.5 log10 c/mL, n (%) [2, 5]: 3 (25%) n (%) | Maximal change in HIV RNA Over 14 days, Mean (SD) [2, 5]: −1.00 (0.50) log10 c/mL | Maximal change in HIV RNA Over 14 days, Range [2, 5]: −0.32 to −1.60 log10 c/mL | Day 8 Change in HIV RNA, Mean (SD) ([2]; 800 mg PO every 12 h with high fat meal, HIV+ adults): −0.72 (0.51) log10 c/mL | patients with >1.0 log drop in viral load ([2]; 800 mg dosing level with high fat meal): 58% | mean response (drop in viral load) ([2]; 1800 mg every 12 h with high fat meal): −0.96 log 10
